Experimental data reported in patent US20150351394A1, “BACTERICIDAL COMPOSITION CONTAINING FLUAZINAM” (Shenzhen Noposion Agrochemicals Co., Ltd., priority 2014, published 2015).

Assays:
[1] = test system: pepper phytophthora blight; assay: Field efficacy experiment against the pepper phytophthora blight (Haikou, Hainan); format: in vivo, phytophthora capsici; details: two foliar sprays 7 days apart, field peppers
Protocol: Test site is Haikou in Hainan. […] Four plots are treated per pesticide and replicates. Each plot has surface area of 20 square meters. The pesticides are applied in the early occurrence of disease and are uniformly sprayed onto the leaves until dripping for the first time. Clean water is used as the blank control. Seven days later, the pesticides are applied for the second time. Disease incidence of the pepper phytophthora blights to the peppers prior to the first pesticide application and that of after 15 days from the second pesticide application are surveyed. Each plot uses a five-point sampling means, surveying two per point, and recording the number of diseased plants, dead plants and apparent withered plants. Disease index and control effect are calculated for each treatment.
Classification method (according to symptom types):
0 level: health, no disease;
1 level: lesions happen only to overground leaves and fruitst;
3 level: brown rot spots happen to overground stems and branches;
5 level: brown rot spots happen to the stem base;
7 level: brown rot spots happen to overground stems, branches and stem base, and some dead branches;
9 level: entire plant dead.
Efficacy calculation method:
Disease index=[Σ(plant quantity in each level×respective level number)×100]/(Total quantity of tested plants×9). […]

[2] = test system: pepper phytophthora capsici; assay: Indoor toxicity test on potted pepper seedlings inoculated with pepper phytophthora capsici (NY/T1156.11-2008); format: in vivo; details: single active compound, survey 8 days after inoculation
Protocol: The pepper phytophthora capsici is acted as test object.
Test methods: referring to the “Republic of China agricultural industry standard NY/T1156.11-2008”, selecting growing consensus potted pepper seedlings, selecting five pots per test object with respective number for use, spraying five milliliters for each pot by a Potter spray tower in a pressure of 50 PSI. The test results are shown in Tables 1 and 2 and each test pesticide is provided with five concentration gradients. After 24 hours, five millimeters pepper phytophthora capsici mycelium blocks are inoculated into the objects. Pepper seedlings with an equal amount of water spraying are selected as the blank control. After inoculation, pepper seedlings are shifted into light moisturizer cabinets for culture. After 8 days, in accordance with grading standards of incidence of pepper phytophthora blights, the disease indexes are surveyed and the control effects are calculated.
Capsici disease classification criteria:
0 level: no lesion on the leaves;
1 level: lesion area of the total leaf area is 5% or less;
3 level: lesion area of the total leaf area is from 6% to 10%;
5 level: lesion area of the total leaf area is from 11% to 25%;
7 level: lesion area of the total leaf area is from 25% to 50%;
9 level: lesion area of the total leaf area is 50% or more.
Disease index=[Σ(leaf quantity in each level×respective level number)×100]/(Total quantity of tested leaves×9).
Control effect (%)=[(blank disease index−treated disease index)]×100]/blank disease index.
Expected effect of a mixture of the active ingredients (i.e., control effect in theory, %) is determined by using Colby's formula and is compared with observed effect:
Colby formula: E=X+Y−X*Y/100
E: expected effect of the composition provided that active ingredient A thereof is in a concentration of a value, and active ingredient B is in a concentration of b value.
X: expected effect provided that usage dose of the active ingredient A is a value.
Y: expected effect provided that usage dose of the active ingredient B is b value.
It is testified that the mixture has a synergistic effect when the actual control effect observed exceeds the expected control effect.

Row | SMILES | Control effects ([1]; 20 g a.i./ha) [%] | Actual effect (control effect) ([2]; 1 ppm in spraying droplet) [%] | Actual effect (control effect) ([2]; 10 ppm in spraying droplet) [%] | Actual effect (control effect) ([2]; 30 ppm in spraying droplet) [%] | Actual effect (control effect) ([2]; 50 ppm in spraying droplet) [%] | Actual effect (control effect) ([2]; 100 ppm in spraying droplet) [%] | Control effects ([1]; 250 g a.i./ha) [%] | Actual effect (control effect) ([2]; 20 ppm in spraying droplet) [%]
1 | C=CCc1ccc(O)c(OC)c1 [Eugenol, 4-allyl-2-methoxy-phenol] | 71.6 | 6.2 | 17.6 | 46.3 | 63.8 | 79.5 | – | –
2 | O=[N+]([O-])c1cc(C(F)(F)F)c(Cl)c([N+](=O)[O-])c1Nc1ncc(C(F)(F)F)cc1Cl [Fluazinam, 3-chloro-N-(3-chloro-5-trifluoromethyl-2-pyridyl)-α,α,α-trifluor-2,6-dinitro-p-toluidine] | – | 11.4 | 31.2 | – | 71.4 | 87.1 | 78.7 | 52.9
